The results in this text go back to patent publication US12427146B2, “C-terminal SRC kinase inhibitors” (INVENTISBIO CO., LTD., priority 2018, dated 2025).

Molecules are shown by their SMILES.

Experiment [1] has as its target CSK protein (Homo sapiens (Human), UniProt P41240). As to the kind of experiment: CSK Inhibition Assay. It counts as biochemical. An outline of the steps:
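Compounds, 11-point 1:3 dilutions in DMSO, were preincubated 30 min at RT with CSK and fluorescent peptide substrate, then the reaction was started with ATP (4 μM solution) and run 90 min at 25 °C before EDTA stop. Phospho-peptide conversion was read by mobility-shift separation (Caliper EZ Reader II) and converted to % inhibition for IC50.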

The target of experiment [2] is LCK protein (Homo sapiens (Human), UniProt P06239). As to the kind of experiment: LCK Inhibition Assay. It counts as biochemical. An outline of the steps:
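Recombinant LCK (0.50 nM) preincubated 30 min at RT with compound and FLPeptide4 (2 μM) in 50 mM HEPES pH 7.5, 10 mM MgCl2, Brij-35, DTT, BSA; reaction started with ATP (400 μM solution added), run 90 min at 25 °C, EDTA-stopped. Phospho/non-phospho peptide separated by mobility shift; IC50 from % inhibition of conversion, 11-point 1:3 series.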

Sequence of LCK protein (P06239 whole entry): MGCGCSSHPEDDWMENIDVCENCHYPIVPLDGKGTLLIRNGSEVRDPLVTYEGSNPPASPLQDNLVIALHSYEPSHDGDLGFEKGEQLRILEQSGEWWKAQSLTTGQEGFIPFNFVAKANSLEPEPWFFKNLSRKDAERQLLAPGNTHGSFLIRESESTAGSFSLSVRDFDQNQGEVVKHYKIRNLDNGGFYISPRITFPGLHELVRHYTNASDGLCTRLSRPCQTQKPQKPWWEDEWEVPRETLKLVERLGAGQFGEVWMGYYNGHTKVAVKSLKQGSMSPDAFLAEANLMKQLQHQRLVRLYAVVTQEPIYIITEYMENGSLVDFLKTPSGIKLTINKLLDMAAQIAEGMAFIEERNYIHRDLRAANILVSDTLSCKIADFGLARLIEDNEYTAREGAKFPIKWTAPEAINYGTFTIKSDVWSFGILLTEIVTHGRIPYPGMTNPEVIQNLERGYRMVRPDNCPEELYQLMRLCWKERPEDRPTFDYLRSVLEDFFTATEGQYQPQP
Sequence of CSK protein (P41240 whole entry): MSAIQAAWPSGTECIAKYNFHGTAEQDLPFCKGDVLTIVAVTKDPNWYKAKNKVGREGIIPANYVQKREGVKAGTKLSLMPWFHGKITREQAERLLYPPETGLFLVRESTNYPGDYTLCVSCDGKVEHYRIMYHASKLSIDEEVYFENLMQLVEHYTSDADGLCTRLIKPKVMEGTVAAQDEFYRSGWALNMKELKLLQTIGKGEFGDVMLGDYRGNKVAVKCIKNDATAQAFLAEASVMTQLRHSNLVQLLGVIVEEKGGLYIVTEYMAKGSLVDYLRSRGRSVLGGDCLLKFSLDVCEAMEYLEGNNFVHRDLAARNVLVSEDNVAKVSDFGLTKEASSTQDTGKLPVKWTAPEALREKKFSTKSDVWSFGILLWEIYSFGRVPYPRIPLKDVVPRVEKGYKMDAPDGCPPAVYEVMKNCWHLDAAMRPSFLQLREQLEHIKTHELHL

As usually defined, the IC50 is the concentration that gives 50% inhibition. Higher therefore signals weaker potency. For `N#Cc1ccn2c(-c3ccnc(N)n3)c(-c3cccc(NS(=O)(=O)c4c(F)cccc4F)c3F)nc2c1` [Compound 101], the results for the IC50 in experiment [1] and in experiment [2] were 0.436 µM and over 1 µM, respectively.
The like results for `CNc1nccc(-c2sc(N3CCC(F)(F)CC3)nc2-c2cccc(NS(=O)(=O)c3c(F)ccc(C)c3F)c2F)n1` [Compound 189] were, in that order, 0.0185 µM and over 1 µM.
Take `CCN(CC)c1nc(-c2cccc(NS(=O)(=O)c3c(F)cccc3F)c2F)c(-c2ccnc(NC)n2)s1` [compound 153]: the results for the IC50 in experiment [1] and in experiment [2] were 0.0074 µM and 0.1 to 1 µM, respectively.
Consider `CNc1nccc(-c2sc(-c3ccc(F)cn3)nc2-c2cccc(NS(=O)(=O)c3c(Cl)cccc3Cl)c2F)n1` [Compound 123], for which the IC50 in experiment [1] was 0.0232 µM; in experiment [2], over 1 µM.
The matching figures for `Cc1ccc(F)c(S(=O)(=O)Nc2cccc(-c3nc(-c4cncc(F)c4)sc3-c3ccnc(NC4CC4)n3)c2F)c1F` [Compound 169]: 0.0091 µM and over 1 µM.
The like results for `CNc1nccc(-c2sc(N3CCCCC3)nc2-c2cccc(NS(=O)(=O)c3c(Cl)ccc(C)c3Cl)c2F)n1` [Compound 177] were, in that order, 0.0141 µM and over 1 µM.
On to `CNc1nccc(-c2sc(N3CCC(F)(F)CC3)nc2-c2cccc(NS(=O)(=O)c3c(F)cccc3F)c2F)n1` [Compound 164], for which the IC50 is 0.0254 µM in experiment [1] and 0.1 to 1 µM in experiment [2].
The like results for `COc1cc2nc(-c3cccc(NS(=O)(=O)c4c(F)cccc4F)c3F)c(-c3ccnc(N)n3)n2cc1Cl` [Compound 100] were, in that order, 0.137 µM and over 1 µM.
The like results for `CCc1ccn2c(-c3ccnc(N)n3)c(-c3cccc(NS(=O)(=O)c4c(F)cccc4F)c3F)nc2c1` [Compound 92] were, in that order, 0.0892 µM and over 1 µM.
The like results for `O=S(=O)(Nc1cccc(-c2nc(-c3ccccc3)sc2-c2ccnc(Nc3cccnc3)n2)c1F)c1c(F)cccc1F` [Compound 42] were, in that order, 0.0377 µM and 0.1 to 1 µM.
Take `Cc1ccc(-c2nc(-c3cccc(NS(=O)(=O)c4c(F)ccc(C)c4F)c3F)c(-c3ccnc(NCCO)n3)s2)nn1` [Compound 174]: the IC50 in experiment [1] is 0.0175 µM; in experiment [2] it was over 1 µM.
The matching figures for `Cc1ccc(F)c(S(=O)(=O)Nc2cccc(-c3nc(-c4cncc(F)c4)sc3-c3ccnc(NCCO)n3)c2F)c1F` [Compound 167]: 0.0159 µM and over 1 µM.
Consider `CNc1nccc(-c2sc(-c3ccc(F)cc3)nc2-c2cccc(NS(=O)(=O)c3c(F)ccc(C)c3F)c2F)n1` [Compound 70], for which the IC50 was 0.0923 µM in experiment [1] and over 1 µM in experiment [2].
The matching figures for `CC(C)(C)c1nc(-c2cccc(NS(=O)(=O)c3c(F)ccc(Cl)c3F)c2F)c(-c2ccnc(NC3CC3)n2)s1` [Compound 188]: 0.0114 µM and over 1 µM.
The matching figures for `CNc1nccc(-c2sc(N3CCC(F)(F)C3)nc2-c2cccc(NS(=O)(=O)c3c(F)cccc3F)c2F)n1` [Compound 162]: 0.0064 µM and 0.1 to 1 µM.
The like results for `COc1ccc(-c2nc(-c3cccc(NS(=O)(=O)c4c(F)cccc4F)c3F)c(-c3ccnc(N)n3)s2)cc1` [Compound 5] were, in that order, 0.0627 µM and over 1 µM.
With `CNc1nccc(-c2sc(-c3cncc(F)c3)nc2-c2cc(Cl)cc(NS(=O)(=O)c3c(F)cccc3F)c2F)n1` [Compound 140], the IC50 was 0.0165 µM in experiment [1] and over 1 µM in experiment [2].
In the case of `CNc1nccc(-c2sc(-c3ccc(F)cn3)nc2-c2cccc(NS(=O)(=O)c3c(F)ccc(C)c3F)c2F)n1` [Compound 55], the 50% inhibitory concentration (IC50) is 0.0303 µM in experiment [1] and over 1 µM in experiment [2].
The like results for `Cc1ccc(F)c(S(=O)(=O)Nc2cccc(-c3nc(-c4ccccc4)sc3-c3ccnc(N)n3)c2F)c1F` [compound 36] were, in that order, 0.0223 µM and over 1 µM.
The like results for `COc1cc(N2CCOCC2)ccc1Nc1nccc(-c2sc(-c3ccccc3)nc2-c2cccc(NS(=O)(=O)c3c(F)cccc3F)c2F)n1` [Compound 9] were, in that order, 0.0503 µM and over 1 µM.
The matching figures for `CNc1nccc(-c2sc(C(C)(C)C)nc2-c2cccc(NS(=O)(=O)c3c(F)cccc3F)c2F)n1` [Compound 117]: 0.0815 µM and over 1 µM.
On to `Nc1nccc(-c2sc(-c3cccc(F)c3)nc2-c2cccc(NS(=O)(=O)c3c(F)cccc3F)c2F)n1` [Compound 15], for which the half-maximal inhibitory concentration (IC50) in experiment [1] was 0.0514 µM; in experiment [2], over 1 µM.
On to `Cc1ncc(-c2nc(-c3cccc(NS(=O)(=O)c4c(Cl)cccc4Cl)c3F)c(-c3ccnc(NCCO)n3)s2)cn1` [Compound 150], for which the figures for the IC50 in experiment [1] and in experiment [2] were 0.0081 µM and over 1 µM, respectively.
Regarding `CNc1nccc(-c2sc(N3CCCC3=O)nc2-c2cccc(NS(=O)(=O)c3c(F)cccc3F)c2F)n1` [Compound 113], the half-inhibitory concentration (IC50) in experiment [1] is 0.0238 µM; in experiment [2] it was over 1 µM.
Turning to `COc1ccc(-c2nc(-c3cccc(NS(=O)(=O)c4c(F)cccc4F)c3F)c(-c3ccnc(N)n3)s2)cn1` [compound 27], the IC50 was 0.0269 µM in experiment [1] and 0.1 to 1 µM in experiment [2].
For `Nc1nccc(-c2sc(-c3cnccn3)nc2-c2cccc(NS(=O)(=O)c3c(F)cccc3F)c2F)n1` [compound 39], the IC50 in experiment [1] was 0.0339 µM; in experiment [2], over 1 µM.
As for `O=S(=O)(Nc1cccc(-c2nc(N3CCCC3)sc2-c2ccnc(NC3CC3)n2)c1F)c1c(F)ccc(Cl)c1F` [Compound 184], the IC50 in experiment [1] is 0.0052 µM; in experiment [2], over 1 µM.
On to `CNc1nccc(-c2sc(-c3ccc(F)cn3)nc2-c2cccc(NS(=O)(=O)c3c(F)cc(Cl)cc3F)c2F)n1` [Compound 134], for which the results for the concentration for half-maximal inhibition (IC50) in experiment [1] and in experiment [2] were 0.184 µM and over 1 µM, respectively.
The like results for `Nc1nccc(-c2sc(-c3ccccc3)nc2-c2cccc(NS(=O)(=O)c3ccc4[nH]ncc4c3)c2F)n1` [Compound 83] were, in that order, 0.842 µM and over 1 µM.
The matching figures for `Cc1ccc(-c2nc(-c3cccc(NS(=O)(=O)c4c(F)ccc(C)c4F)c3F)c(-c3ccnc(NC4CC4)n3)s2)nn1` [Compound 173]: 0.0103 µM and over 1 µM.
The matching figures for `O=S(=O)(Nc1cccc(-c2nc(-c3cncc(F)c3)sc2-c2ccnc(NC3CC3)n2)c1F)c1c(Cl)cccc1Cl` [Compound 80]: 0.006 µM and over 1 µM.
For `Nc1nccc(-c2sc(C3CCNCC3)nc2-c2cccc(NS(=O)(=O)c3c(F)cccc3F)c2F)n1` [Compound 122], the IC50 was 0.634 µM in experiment [1] and 0.1 to 1 µM in experiment [2].
The like results for `CNc1nccc(-c2sc(N(C)C)nc2-c2cccc(NS(=O)(=O)c3c(Cl)ccc(C)c3Cl)c2F)n1` [Compound 182] were, in that order, 0.0083 µM and over 1 µM.
The matching figures for `CNc1nccc(-c2sc(-c3cncc(C(F)(F)F)c3)nc2-c2cccc(NS(=O)(=O)c3c(F)cccc3F)c2F)n1` [Compound 75]: 0.0739 µM and over 1 µM.
For the compound `CNc1nccc(-c2sc(-c3cncc(F)c3)nc2-c2cccc(NS(=O)(=O)c3c(Cl)cccc3Cl)c2F)n1` [Compound 127], the IC50 in experiment [1] was 0.0058 µM; in experiment [2] it was over 1 µM.
As for `CC(C)Nc1nccc(-c2sc(-c3cncc(F)c3)nc2-c2cccc(NS(=O)(=O)c3c(F)cccc3F)c2F)n1` [Compound 78], the results for the IC50 in experiment [1] and in experiment [2] were 0.0118 µM and over 1 µM, respectively.
In the case of `O=S(=O)(Nc1cccc(-c2nc(N3CCCCC3)sc2-c2ccnc(NC3CC3)n2)c1F)c1c(F)cccc1F` [Compound 163], the IC50 in experiment [1] is 0.0074 µM; in experiment [2], 0.1 to 1 µM.
Take `Cc1ncc(-c2nc(-c3cccc(NS(=O)(=O)c4c(Cl)cccc4Cl)c3F)c(-c3ccnc(N)n3)s2)cn1` [Compound 141]: the IC50 in experiment [1] is 0.0068 µM; in experiment [2], 0.1 to 1 µM.
`CCNc1nccc(-c2sc(-c3ccc(F)cn3)nc2-c2cccc(NS(=O)(=O)c3c(F)ccc(C)c3F)c2F)n1` [Compound 56]: the IC50 in experiment [1] was 0.047 µM; in experiment [2], over 1 µM.
In the case of `Nc1nccc(-c2sc(-c3cncc(F)c3)nc2-c2cccc(NS(=O)(=O)c3c(Cl)cccc3Cl)c2F)n1` [Compound 62], the values for the half-inhibitory concentration (IC50) in experiment [1] and in experiment [2] were 0.0094 µM and over 1 µM, respectively.
For `Nc1nccc(-c2sc(-c3cncnc3)nc2-c2cccc(NS(=O)(=O)c3c(F)cccc3F)c2F)n1` [Compound 29], the IC50 was 0.0205 µM in experiment [1] and over 1 µM in experiment [2].
With `CNc1nccc(-c2sc(N3CCCC3=O)nc2-c2cccc(NS(=O)(=O)c3c(F)ccc(C)c3F)c2F)n1` [Compound 124], the IC50 in experiment [1] was 0.0149 µM; in experiment [2], over 1 µM.
In the case of `O=S(=O)(Nc1cccc(-c2nc(-c3cncc(F)c3)sc2-c2ccnc(NCCO)n2)c1F)c1c(Cl)cccc1Cl` [Compound 79], the IC50 is 0.0076 µM in experiment [1] and over 1 µM in experiment [2].
The like results for `CNc1nccc(-c2sc(-c3ccc(F)cn3)nc2-c2cccc(NS(=O)(=O)c3c(F)cccc3F)c2F)n1` [compound 34] were, in that order, 0.0429 µM and over 1 µM.
For `Cc1cncc(-c2nc(-c3cccc(NS(=O)(=O)c4c(F)cccc4F)c3F)c(-c3ccnc(N)n3)s2)c1` [Compound 47], the IC50 was 0.0294 µM in experiment [1] and 0.1 to 1 µM in experiment [2].
As to `COC(=O)N[C@H](C)CNc1nccc(-c2sc(-c3ccccc3)nc2-c2cccc(NS(=O)(=O)c3c(F)cccc3F)c2F)n1` [Compound 60], the IC50 in experiment [1] was 0.12 µM; in experiment [2] it was over 1 µM.
Take `COC(=O)NCCNc1nccc(-c2sc(-c3ccccc3)nc2-c2cccc(NS(=O)(=O)c3c(F)cccc3F)c2F)n1` [Compound 59]: the values for the IC50 in experiment [1] and in experiment [2] were 0.0684 µM and over 1 µM, respectively.
